The text below walks through data of paper PMC10682503, “Structural and functional basis of inositol hexaphosphate stimulation of NHEJ through stabilization of Ku-XLF interaction” (Nucleic Acids Research, 2023).

Test [1] concerns the target T1, Ku-2E (Ku70-K357E, Ku80-K481E) (Homo sapiens, UniProt P12956+P13010, K357E/K481E).
T1 construct: 10x His-tag with TEV site (same vector as KuFL) (N); made in house; host or cells: Sf21 insect cells
Nature of the test: ITC, Ku-2E mutant with IP6. Format: binding. The procedure:
(§1) Purification of Ku full-length (KuFL) for cryo-EM experiments was carried out as described previously ([5]). Expression and purification of KuFL for biophysical experiments was carried out as described previously ([20]). The full-length human Ku heterodimer subunits (Ku70 1–609, Ku80 1–732) were cloned into a Multibac vector ([21]). The construct has a 10× His-tag and a TEV site on the N-terminus of Ku80 and no-tag on Ku70. Protein production was initiated in Sf21 cells by infection with the baculovirus stock at MOI of 5 × 10^−3 and cells were collected 5–6 days after the infection (3–4 days after the proliferation arrest). Cells were sonicated and the supernatant was incubated with Benzonase (300 units for 30 min at 4°C). The Ku heterodimer was purified on a NiNTA-Agarose affinity column (Protino, Macherey Nagel) with a 1 M NaCl wash step to remove DNA excess. The eluted Ku was then bound onto an anion exchange column (Resource Q, Cytiva) equilibrated in 20 mM Tris pH 8.0, 50 mM NaCl, 50 mM KCl, 10 mM β-mercaptoethanol and eluted with a salt gradient. […]
(§2) Calorimetry. Interactions between KuFL and inositol phosphates (IPs) (IP6 and IP6 analogues) were determined by Isothermal Titration Calorimetry (ITC) using a VP-ITC calorimeter (Malvern). […] The free energy of binding (ΔG) and the entropy (ΔS) were determined using the classical thermodynamic formula, ΔG = - RT ln(Ka) and ΔG = ΔH - TΔS. […]

Test [2] addresses T2, Ku-XLF interaction (Homo sapiens, UniProt P12956+P13010).
T2 construct: The full-length human Ku heterodimer subunits (Ku70 1–609, Ku80 1–732); 10x His-tag with TEV site (N); made in house; host or cells: Sf21 insect cells (Ku)
The test can be described thus: switchSENSE analysis of Ku-DNA interaction with XLF. To be noted: IP6 20 μM; for Kd: biphasic fit. The class given is binding. The procedure:
switchSENSE: A DRX 2400 instrument and a multi-purpose 48bp chip were used for switchSENSE measurements (both Dynamic Biosensors GmbH; Planegg, Germany). The sample and running buffer was in 10 mM Tris HCl pH 7.4, 140 mM NaCl, 50 µM EDTA, 0.05 % Tween-20, 50µM EDTA. Kinetics experiments of Ku interaction with DNA in presence or absence of IP6 were performed on a DRX2 instrument. Complementary DNA to the strand immobilized on the chip was first hybridized on the measurement electrodes. The association and dissociation between Ku and DNA, with or without IP6 (3 µM) at Ku concentration (0-15-30-60-120-240 nM were measured in a flow rate of 200 µL/min. Kinetics experiments of Ku interaction with DNA and XLF with or without DNA were performed on a Helix instrument. The sample and running buffer was in 10 mM Tris HCl pH 7.4, 140 mM NaCl, 50 µM EDTA, 0.05 % Tween-20 with or without IP6 (20 µM). The flow rate of all conditions are at 500 µL/min.
A complementary DNA is hybridized onto an anchor DNA on the measurement chip in order to obtain a 96 base paired DNA with nick. KuFL is then captured under saturation condition (SI figure 13a and 13c). Association and dissociation between XLF and Ku-DNA is then monitored using 1, 2 or 8 µM of XLF, with or without IP6 in working buffer (SI figure 13c and d) . The fit is realised using biphasic model from BDS software.

The target in test [3] is T3, KuΔC (Ku heterodimer deleted of its C-terminal regions) (Homo sapiens, UniProt P12956+P13010).
T3 construct: heterodimer deleted of its C-terminal region (Ku70 1–544, Ku80 1–551); His-tag (10x His with TEV site, same vector as KuFL) (N); made in house; host or cells: Sf21 insect cells
The test can be described thus: ITC, KuΔC with IP6. Format: binding. The procedure:
as §1, §2
Background: In ITC the heat of successive injections is recorded.

For test [4], the system named is S. cerevisae Ku. Details: method as in PMID 11953323. To be noted: cited from earlier work.
The target in test [5] is T4, Ku-4E (Ku70 H359E-H360E/Ku80 K413E H414E) (Homo sapiens, UniProt P12956+P13010, H359E/H360E/H414E/K413E).
T4 construct: 10x His-tag with TEV site (same vector as KuFL) (N); made in house; host or cells: Sf21 insect cells
The test can be described thus: ITC, Ku-4E mutant with IP6. The class given is binding. The method, then: as §1, §2

Test [6] deals with T5, KuFL (full-length human Ku70–Ku80 heterodimer) (Homo sapiens, UniProt P12956+P13010).
T5 construct: The full-length human Ku heterodimer subunits (Ku70 1–609, Ku80 1–732); 10x His-tag with TEV site (N); made in house; host or cells: Sf21 insect cells (baculovirus, MultiBac)
The test can be described thus: Isothermal titration calorimetry (ITC), KuFL with IP6 and IP6 analogues. The class given is binding. To be noted: 25 °C, Ku 4 µM in cell, IPs 40 µM in syringe. The method, then: Purification of Ku full-length (KuFL) for cryo-EM experiments was carried out as described previously ([5]). Expression and purification of KuFL for biophysical experiments was carried out as described previously ([20]). The full-length human Ku heterodimer subunits (Ku70 1–609, Ku80 1–732) were cloned into a Multibac vector ([21]). The construct has a 10× His-tag and a TEV site on the N-terminus of Ku80 and no-tag on Ku70. Protein production was initiated in Sf21 cells by infection with the baculovirus stock at MOI of 5 × 10^−3 and cells were collected 5–6 days after the infection (3–4 days after the proliferation arrest). Cells were sonicated and the supernatant was incubated with Benzonase (300 units for 30 min at 4°C). The Ku heterodimer was purified on a NiNTA-Agarose affinity column (Protino, Macherey Nagel) with a 1 M NaCl wash step to remove DNA excess. The eluted Ku was then bound onto an anion exchange column (Resource Q, Cytiva) equilibrated in 20 mM Tris pH 8.0, 50 mM NaCl, 50 mM KCl, 10 mM β-mercaptoethanol and eluted with a salt gradient. The final yield was about 20 mg of purified heterodimer per litre of culture. KuΔC constructs, heterodimer deleted of its C-terminal region (Ku70 1–544, Ku80 1–551) for X-ray crystallography, Ku mutants, Ku-2E (Ku with mutation in K357E on Ku70 and K481E on Ku80) and Ku-4E (Ku with mutations in H359E and H360E on Ku70 and K413E and H414E on Ku80) were cloned in the same vector and produced following the same protocol as KuFL expressed in Sf21 insect cells.
Calorimetry. Interactions between KuFL and inositol phosphates (IPs) (IP6 and IP6 analogues) were determined by Isothermal Titration Calorimetry (ITC) using a VP-ITC calorimeter (Malvern). Prior to measurements, all solutions were degassed under vacuum. The reaction cell of the ITC (volume 1.8 mL) was loaded with Ku heterodimers at 4 µM concentration. […] The free energy of binding (ΔG) and the entropy (ΔS) were determined using the classical thermodynamic formula, ΔG = - RT ln(Ka) and ΔG = ΔH - TΔS. […]

The structures appear in SMILES notation. Read-outs that look alike come from different tables or passages of the source.

T2 sequence (P12956 whole entry): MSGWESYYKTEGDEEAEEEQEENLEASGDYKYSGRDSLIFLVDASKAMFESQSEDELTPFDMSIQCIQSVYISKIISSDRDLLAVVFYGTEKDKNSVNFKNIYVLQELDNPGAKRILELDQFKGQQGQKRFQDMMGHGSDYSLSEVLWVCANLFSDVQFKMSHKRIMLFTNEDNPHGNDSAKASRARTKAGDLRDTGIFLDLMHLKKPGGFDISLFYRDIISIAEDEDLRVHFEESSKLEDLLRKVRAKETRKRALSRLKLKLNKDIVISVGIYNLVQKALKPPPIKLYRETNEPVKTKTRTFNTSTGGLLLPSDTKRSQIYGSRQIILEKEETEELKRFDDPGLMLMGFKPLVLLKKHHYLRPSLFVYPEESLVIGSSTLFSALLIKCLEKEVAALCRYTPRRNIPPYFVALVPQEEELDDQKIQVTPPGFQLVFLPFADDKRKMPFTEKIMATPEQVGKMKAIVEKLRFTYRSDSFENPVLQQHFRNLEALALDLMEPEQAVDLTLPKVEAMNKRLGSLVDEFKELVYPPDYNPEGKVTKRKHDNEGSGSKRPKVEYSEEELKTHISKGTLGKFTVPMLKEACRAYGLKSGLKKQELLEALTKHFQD
T2 sequence (P13010 whole entry): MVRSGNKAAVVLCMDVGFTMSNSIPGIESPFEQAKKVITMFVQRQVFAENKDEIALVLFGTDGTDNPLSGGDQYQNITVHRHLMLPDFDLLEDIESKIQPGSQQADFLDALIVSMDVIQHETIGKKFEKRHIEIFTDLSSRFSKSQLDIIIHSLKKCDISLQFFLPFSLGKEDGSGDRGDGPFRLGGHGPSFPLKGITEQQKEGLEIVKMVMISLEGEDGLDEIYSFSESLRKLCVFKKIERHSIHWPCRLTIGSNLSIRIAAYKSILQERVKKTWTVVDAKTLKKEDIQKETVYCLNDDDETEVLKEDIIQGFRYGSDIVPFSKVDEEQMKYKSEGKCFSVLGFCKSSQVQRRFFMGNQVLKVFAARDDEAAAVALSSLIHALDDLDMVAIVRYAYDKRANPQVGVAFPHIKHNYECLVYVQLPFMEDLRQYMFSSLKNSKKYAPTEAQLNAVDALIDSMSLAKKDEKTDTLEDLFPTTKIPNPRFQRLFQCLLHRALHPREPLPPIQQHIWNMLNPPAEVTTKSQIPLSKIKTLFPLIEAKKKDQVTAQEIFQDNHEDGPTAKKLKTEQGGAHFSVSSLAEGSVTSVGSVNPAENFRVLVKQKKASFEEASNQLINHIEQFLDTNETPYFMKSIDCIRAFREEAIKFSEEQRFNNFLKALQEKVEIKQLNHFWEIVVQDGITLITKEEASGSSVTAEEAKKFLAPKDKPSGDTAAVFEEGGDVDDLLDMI
T2 sequence (Q9H9Q4 whole entry partner): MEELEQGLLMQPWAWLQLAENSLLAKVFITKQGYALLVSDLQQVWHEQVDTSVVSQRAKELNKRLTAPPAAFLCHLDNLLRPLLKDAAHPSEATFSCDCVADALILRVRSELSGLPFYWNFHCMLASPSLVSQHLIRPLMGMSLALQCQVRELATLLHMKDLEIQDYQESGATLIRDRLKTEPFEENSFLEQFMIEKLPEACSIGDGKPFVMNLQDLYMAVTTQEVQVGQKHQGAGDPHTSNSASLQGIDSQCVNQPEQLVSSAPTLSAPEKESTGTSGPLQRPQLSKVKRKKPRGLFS
T3 sequence (P12956 1-544, stated change not applied): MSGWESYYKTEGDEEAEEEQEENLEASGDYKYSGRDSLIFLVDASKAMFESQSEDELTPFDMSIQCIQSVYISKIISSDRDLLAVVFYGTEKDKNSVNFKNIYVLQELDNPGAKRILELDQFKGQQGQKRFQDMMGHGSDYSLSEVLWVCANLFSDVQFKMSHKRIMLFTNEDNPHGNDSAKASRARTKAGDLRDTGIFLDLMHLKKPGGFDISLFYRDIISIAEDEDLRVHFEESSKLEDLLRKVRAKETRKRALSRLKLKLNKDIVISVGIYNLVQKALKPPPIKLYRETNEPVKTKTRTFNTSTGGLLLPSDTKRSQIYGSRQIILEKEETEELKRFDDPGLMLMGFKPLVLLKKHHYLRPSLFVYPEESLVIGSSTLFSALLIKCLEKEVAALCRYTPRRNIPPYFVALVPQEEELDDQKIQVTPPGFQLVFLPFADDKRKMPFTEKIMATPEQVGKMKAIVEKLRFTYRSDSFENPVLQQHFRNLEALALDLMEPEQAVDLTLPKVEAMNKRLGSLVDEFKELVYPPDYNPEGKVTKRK
T3 sequence (P13010 1-551, stated change not applied): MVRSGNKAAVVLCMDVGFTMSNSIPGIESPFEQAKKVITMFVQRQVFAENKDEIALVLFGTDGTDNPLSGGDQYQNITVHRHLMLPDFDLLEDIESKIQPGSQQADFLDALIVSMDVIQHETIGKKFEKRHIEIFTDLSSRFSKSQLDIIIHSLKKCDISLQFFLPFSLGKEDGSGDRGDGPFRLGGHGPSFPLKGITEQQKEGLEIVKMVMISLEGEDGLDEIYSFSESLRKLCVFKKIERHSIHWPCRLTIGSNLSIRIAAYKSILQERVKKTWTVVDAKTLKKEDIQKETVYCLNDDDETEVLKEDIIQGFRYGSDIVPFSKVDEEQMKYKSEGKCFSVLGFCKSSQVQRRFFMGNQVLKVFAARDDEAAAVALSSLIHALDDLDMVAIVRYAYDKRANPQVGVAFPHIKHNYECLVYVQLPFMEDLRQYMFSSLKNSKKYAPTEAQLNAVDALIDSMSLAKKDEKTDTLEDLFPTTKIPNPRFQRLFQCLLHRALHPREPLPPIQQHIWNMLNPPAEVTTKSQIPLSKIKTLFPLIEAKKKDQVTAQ
T1 sequence (P12956 whole entry K357E): as the sequence (P12956 whole entry) above, with K357E counted along it
T1 sequence (P13010 whole entry K481E): as the sequence (P13010 whole entry) above, with K481E counted along it
T5 sequence (P12956 whole entry): as the sequence (P12956 whole entry) above
T5 sequence (P13010 whole entry): as the sequence (P13010 whole entry) above
T4 sequence (P12956 whole entry H359E/H360E): as the sequence (P12956 whole entry) above, with H359E, H360E counted along it
T4 sequence (P13010 whole entry K413E/H414E): as the sequence (P13010 whole entry) above, with K413E, H414E counted along it

As for `O=P(O)(O)O[C@H]1[C@H](OP(=O)(O)O)[C@@H](OP(=O)(O)O)[C@H](OP(=O)(O)O)[C@@H](OP(=O)(O)O)[C@H]1OP(=O)(O)O` [IP6, inositol hexaphosphate], the “interaction with IP6 as measured by ITC” value in test [1] and in test [5] was “no interaction” in each case. Also, the “KD1 stronger with IP6 than in absence of IP6” value in test [2] was found to be 3 fold. Besides, the “KD2 stronger with IP6 than in absence of IP6” value in test [2] stood at 14 fold. The Kd in test [2] (without IP6 1.9 ± 0.8, read-out: KD2, apparent affinity between Ku and XLF) came to 130 ± 9 nM; in test [2] (without IP6 3.6 ± 0.6, read-out: KD1, apparent affinity between Ku and XLF) it was 1200 ± 150 nM; in test [3] (KuΔC construct), 178 ± 12 nM; in test [6], 3.5 ± 2.9 nM. Further, the “weaker affinity of KuΔC compared with KuFL” value in test [3] is listed as around 50 fold. In addition, in test [4], the “interaction between S. cerevisae Ku and IP6” value is “absence of interactions”.
